# Experimental data from patent US20220167645A1, “METHODS OF IMPROVING FISH FEED CONVERSION RATE AND SURVIVAL” (AQUINOVO LTD., priority 2019, published 2022).
# Numbered stars: 1 amine (or outer) side, 2 acyl side, 3 side chain; on linkers, the order of the positions; unused ones are H or OH. Square brackets hold non-standard residues; d marks the D form. Suc = O=C(CCC(=O)[*:2])[*:1]; NMeV = CN[C@H](C(=O)O)C(C)C; βAla = NCCC(=O)O
# Test system: Tilapia fish
# Assay: Experiment #3: tilapia fed AN6-coated feed, treatment schedules 1 to 8 (survival, weight, length, size distribution, FCR)
# Assay type: in vivo
# Conditions: for increase in average fish weight: D279, compared to control; for % big fish (Big fish 279 dph >1000 g) / % small fish (Small fish 279 dph >476 g) / Δ Treatment - Control (%) big fish (>1000 g) / Δ Treatment - Control (%) small fish (>476 g) / Big fish # (Big fish 279 dph >1000 g) / Small fish # (Small fish 279 dph): 279 dph; for Average FCR/cage / Average density (body/cage) / Average weight gain/fish (g) / Average weight/fish (g) / Total weight/cage (g): D 236 to D 279, % change relative to control
# Description: The following fish feed was used in this experiment: MeM (powder, manufactured by Bern Aqua), Nanolis P1, P2 (pellet sizes of 1 mm, 1.2-1.5 mm, respectively, manufactured by Ocialis) and Tilaphi 2, 3 & 4 (pellet sizes of 2 mm, 3-4 mm & 5.5 mm manufactured by Ocialis). The feed content is in described in Table 4.
# Feed was coated using the following general procedure: Different amounts of the peptide AN6 (SEQ ID NO: 6) were prepared by dissolving the peptide in Tris-HCl solution (50 mM, pH=8.8) in ratio of 15 mg peptide to 1.25 ml Tris-HCl solution. Then, each of the various solutions was mixed with 3 Kg of the basic feed pellets (depending on fish size) using an electric mixer. The peptide-feed mixtures where then dried either in oven at 40° C. for 24 hours or in drying drum (at room temperature) for few hours to form coated pellets.
# Tilapia fish (n=4800) were raised from day 10 (0.05 g) post-hatch (dph) in indoor tanks and then transferred to outdoor cages in ponds (40-279 dph). Each cage/tank is an experimental unit. The fish were fed to apparent satiation 2-4 times a day with feed appropriate to their age and treatment as described in Table 5.
# The trial included total 48 cages representing 8 treatments, with 6 repeats each. Each cage contained about 100 fish. […] Fed to fish throughout the entire growth-trial period (for 279 days); • Treatment 2 (5 ppm from 10 dph for 120 days): The control diet with the addition of 5 mg peptide/kg of diet (Feed F). Fish were fed the peptide enriched diet for 120 days (4 months), from 10 days of age (D0—the first day of the experiment) to 130 days of age (D120), and the control diet during the last 6 months (159 days) (Feed E); • Treatment 3 (10 ppm from 10 dph for 60 days): The control diet with the addition of 10 mg peptide/kg of diet (Feed G). […] Fish were fed the peptide enriched diet for 90 days (3 months) from 10 days of age (D0) to 100 days of age (D90) and the control diet for the last 7 months (189 days) (Feed E); • Treatment 5 (10 ppm from 10 dph for 120 days): The control diet with the addition of 10 mg peptide/kg of diet (Feed G). Fish were fed the peptide enriched diet for 120 days (4 months) from 10 days of age (D0) to 130 days of age (D120) and the control diet for the last 6 months (159 days) (Feed E); • Treatment 6 (10 ppm from 100 dph for 30 days): The control diet with the addition of 10 mg peptide/kg of diet (Feed G). Fish were fed the peptide enriched diet for 30 days (1 month) from 100 days of age (D90) to 130 days of age (D120) and the control diet for the first three months (90 days from D0 to D90) and the last 6 months (159 days) (Feed E); • Treatment 7 (30 ppm from 10 dph for 60 days): The control diet with the addition of 30 mg peptide/kg of diet (Feed H). Fish were fed the peptide enriched diet for 60 days (2 months) from 10 days of age (D0) to 70 days of age (D60), and the control diet during the last 8 months (219 days) (Feed E); • Treatment 8 (30 ppm from 10 dph for 90 days): The control diet with the addition of 30 mg peptide/kg of diet (Feed H). Fish were fed the peptide enriched diet for 90 days (3 months) from 10 days of age (D0) to 100 days of age (D90) and the control diet for the last 7 months (189 days) (Feed E).
# During the experimental period, fish weight and length were measured once a month. Individual fish sex was determined at days 96 and 279 of the experiment. Average fish weight per cage were calculated for each measurement period (FIG. 8). […] Between two weight measurements, average weight gain (FIG. 9A) and daily growth rates (FIG. 9B) were calculated by subtracting the average weight at the beginning and end of the measuring period and dividing by the number of days between.
# In order to determine the efficiency of feed conversion into fish substance in experiments (#1, #2, #3), FCR values which reflect the amount of feed needed to grow a kilogram fish, were calculated for each period and for the entire fish growth period. […]
# [1] = AN6 for 60 days, 10 mg/Kg feed (Treatment 3)
# [2] = AN6 for 90 days, 30 mg/Kg feed (Treatment 8)
# [3] = AN6 treated groups (Treatments 2, 3, or 8)
# [4] = Treatment 2 (5 ppm from 10 dph for 120 days)
# [5] = Treatment 2 (5 ppm from 10 dph for 120 days), of 451 fish
# [6] = Treatment 2 (5 ppm from 10 dph for 120 days), female fish, D 96
# [7] = Treatment 2 (5 ppm from 10 dph for 120 days), female fish, D 279
# [8] = Treatment 2 (5 ppm from 10 dph for 120 days), male fish, D 96
# [9] = Treatment 2 (5 ppm from 10 dph for 120 days), male fish, D 279
# [10] = Treatment 3 (10 ppm from 10 dph for 60 days)
# [11] = Treatment 3 (10 ppm from 10 dph for 60 days), of 480 fish
# [12] = Treatment 3 (10 ppm from 10 dph for 60 days), female fish, D 96
substance,measurement,setting,value
Succ-Asp-Ser- D-Trp -N(Me)Val-βAla-Leu-Met-NH2 (Suc-DS[dW][NMeV][βAla]LM-NH2; SMILES CSCC[C@H](NC(=O)[C@H](CC(C)C)NC(=O)CCNC(=O)[C@H](C(C)C)N(C)C(=O)[C@@H](Cc1c[nH]c2ccccc12)NC(=O)[C@H](CO)NC(=O)[C@H](CC(=O)O)NC(=O)CCC(=O)O)C(N)=O) [AN6],increase in average fish weight,5 mg AN6/Kg for 120 days (Treatment 2),+7.11%
same,increase in average fish weight,10 mg AN6/Kg feed from 10 dph for 120 days (Treatment 5),+6.41%
same,"increased daily growth rate, on average compared to the control","5 ppm and 10 ppm AN6 for sufficient time (>90 days), throughout the experimental period",5.8%
same,FCR,[1],improved FCR significantly
same,growth,[1],did not affect growth
same,FCR,[2],improved FCR significantly
same,growth,[2],did not affect growth
same,proportion of large fish (>1000 g),[3],higher proportion
same,proportion of small fish (<476 g),[3],lower proportion
same,% big fish (Big fish 279 dph >1000 g),[4],16.6%
same,% small fish (Small fish 279 dph >476 g),[4],4.7%
same,Δ Treatment - Control (%) big fish (>1000 g),[4],6.4%
same,Δ Treatment - Control (%) small fish (>476 g),[4],−4.5%
same,Big fish # (Big fish 279 dph >1000 g),[5],75
same,Small fish # (Small fish 279 dph),[5],21
same,Average FCR/cage,[4],−2.14%
same,Average density (body/cage),[4],0.45%
same,Average weight gain/fish (g),[4],6.18%
same,Average weight/fish (g),[4],6.41%
same,Total weight/cage (g),[4],6.71%
same,Length/fish (cm) Mean,[6],15.85 cm
same,Weight/fish (g) Mean,[6],87.35 g
same,Δ Mean % (Treatment vs. control) Length/fish,[6],0.38%
same,Δ Mean % (Treatment vs. control) Weight/fish,[6],6.24%
same,Length/fish (cm) Mean,[7],30.76 cm
same,Weight/fish (g) Mean,[7],651.83 g
same,Δ Mean % (Treatment vs. control) Length/fish,[7],2.09%
same,Δ Mean % (Treatment vs. control) Weight/fish,[7],8.30%
same,Length/fish (cm) Mean,[8],17.22 cm
same,Weight/fish (g) Mean,[8],111.8 g
same,Δ Mean % (Treatment vs. control) Length/fish,[8],0.00%
same,Δ Mean % (Treatment vs. control) Weight/fish,[8],5.97%
same,Length/fish (cm) Mean,[9],34.37 cm
same,Weight/fish (g) Mean,[9],916.05 g
same,Δ Mean % (Treatment vs. control) Length/fish,[9],−0.03%
same,Δ Mean % (Treatment vs. control) Weight/fish,[9],5.86%
same,% big fish (Big fish 279 dph >1000 g),[10],16.5%
same,% small fish (Small fish 279 dph >476 g),[10],4.8%
same,Δ Treatment - Control (%) big fish (>1000 g),[10],6.2%
same,Δ Treatment - Control (%) small fish (>476 g),[10],−4.3%
same,Big fish # (Big fish 279 dph >1000 g),[11],79
same,Small fish # (Small fish 279 dph),[11],23
same,Average FCR/cage,[10],−4.28%
same,Average density (body/cage),[10],6.91%
same,Average weight gain/fish (g),[10],9.19%
same,Average weight/fish (g),[10],3.44%
same,Total weight/cage (g),[10],10.27%
same,Length/fish (cm) Mean,[12],16.03 cm
same,Weight/fish (g) Mean,[12],87.67 g
